# Laboratory results taken from article PMC8070189, “Native Structure-Based Peptides as Potential Protein–Protein Interaction Inhibitors of SARS-CoV-2 Spike Protein and Human ACE2 Receptor” (Molecules, 2021).
# Biological target: RBD domain of SARS-CoV-2 protein (Severe acute respiratory syndrome coronavirus 2, UniProt P0DTC2)
# Format: binding
sequence,measurement,value
MYEEFKAED,"binding affinity to RBD of S protein, in words",extremely weak binder
